Experimental data reported in patent US9234006B2, “Compounds” (Novacta Biosystems Limited, priority 2011, dated 2016).
Where a name gives a salt, the structure may show the parent alone. Where a SMILES comes first, the peptide text is derived from it. Bridges are numbered along the chain shown (N, C = ends). [ ]: non-standard residue; d: D form. The star is where a group is joined. ξ: configuration not given here. Thr(3ξ) = CC(O)[C@H](N)C(=O)O; Dab = NCC[C@H](N)C(=O)O; Aoc = NCCCCCCCC(=O)O; X2 = NC1CCCC1C(=O)*; Ahx = NCCCCCC(=O)O; X3 = O=C(C1CCNC1)*; Ava = NCCCCC(=O)O

Assays:
Assay in all cases: MIC susceptibility testing, broth microdilution in CaMHB
A. baumannii ATCCBAA-747 = type: cell-based, Acinetobacter baumannii
Description: (§1) To evaluate the potency and spectrum of the compounds, susceptibility testing was performed against four strains of each of the four Gram negative pathogens, Escherichia coli, Pseudomonas aeruginosa, Klebsiella pneumoniae and Acinetobacter baumannii.
(§2) The day before testing, 3 to 4 colonies were picked from fresh Mueller-Hinton Agar (MHA) plate and transferred into 10 mL of Cation adjusted MHB (CaMHB). Cultures were incubated at 37° C. 250 rpm for 18-20 hours before being diluted 100-fold in fresh CaMHB. The subcultures were grown further until the OD600 reached 0.2-0.3 corresponding to […]. The actively growing cultures were diluted 100-fold in fresh medium and used for the inoculum.
(§3) The assays were performed in duplicate.
(§4) Data was obtained under similar conditions to Table 4 except that different batches of cation-adjusted Muller-Hinton broth were used. The MIC values for these compounds are compared with those values obtained for Polymyxin B, Colistin Sulphate, CB-182,804 and NAB739 (as the TFA salt). CB-182,804 is a polymyxin decapeptide derivative with an aryl urea substituent at the N-terminus, which has been claimed to have lower toxicity than Polymyxin B (compound 5 in WO 2010/075416. See page 37). NAB739 has been described previously by Vaara et al.

A. baumannii NCTC7844 = type: cell-based, Acinetobacter baumannii
Description: as §1, §2, §3, §4

A. baumannii NCTC13423 = type: cell-based, Acinetobacter baumannii
Description: as §1, §2, §3, §4

A. baumannii ATCC19606 = type: cell-based, Acinetobacter baumannii
Description: as §1, §2, §3, §4

E. coli NCTC9001 = type: cell-based, Escherichia coli
Description: as §1, §2, §3, §4

E. coli ATCC700928 = type: cell-based, Escherichia coli
Description: as §1, §2, §3, §4

E. coli NCTC12900 = type: cell-based, Escherichia coli
Description: as §1, §2, §3, §4

E. coli ATCC25922 = type: cell-based, Escherichia coli
Description: as §1, §2, §3, §4

K. pneumoniae NCTC8172 = type: cell-based, Klebsiella pneumoniae
Description: as §1, §2, §3, §4

K. pneumoniae ATCC 4352 = type: cell-based, Klebsiella pneumoniae
Description: as §1, §2, §3, §4

[1] = test system: K. pneumoniae ATCCBAA-1706; type: cell-based, Klebsiella pneumoniae
Description: as §1, §2, §3, §4

K. pneumoniae NCTC7427 = type: cell-based, Klebsiella pneumoniae
Description: as §1, §2, §3, §4

P. aeruginosa ATCC10145 = type: cell-based, Pseudomonas aeruginosa
Description: as §1, §2, §3, §4

P. aeruginosa ATCC27853 = type: cell-based, Pseudomonas aeruginosa
Description: as §1, §2, §3, §4

[2] = test system: P. aeruginosa ATCCCRM-9027; type: cell-based, Pseudomonas aeruginosa
Description: as §1, §2, §3, §4

P. aeruginosa ATCC 9721 = type: cell-based, Pseudomonas aeruginosa
Description: as §1, §2, §3, §4

[3] = K. pneumoniae ATCC 4352, Table 4
[4] = P. aeruginosa ATCCCRM-9027, Table 4
[5] = P. aeruginosa ATCC 9721, Table 4
[6] = Table 4A, different batches of cation-adjusted Muller-Hinton broth

Compound	MIC (A. baumannii ATCCBAA-747; Table 4) [micrograms/mL]	MIC (A. baumannii NCTC7844; Table 4) [micrograms/mL]	MIC (A. baumannii NCTC13423; Table 4) [micrograms/mL]	MIC (A. baumannii ATCC19606; Table 4) [micrograms/mL]	MIC (E. coli NCTC9001; Table 4) [micrograms/mL]	MIC (E. coli ATCC700928; Table 4) [micrograms/mL]	MIC (E. coli NCTC12900; Table 4) [micrograms/mL]	MIC (E. coli ATCC25922; Table 4) [micrograms/mL]	MIC (K. pneumoniae NCTC8172; Table 4) [micrograms/mL]	MIC (K. pneumoniae ATCC 4352; [3]) [micrograms/mL]	MIC ([1]; Table 4) [micrograms/mL]	MIC (K. pneumoniae NCTC7427; Table 4) [micrograms/mL]	MIC (P. aeruginosa ATCC10145; Table 4) [micrograms/mL]	MIC (P. aeruginosa ATCC27853; Table 4) [micrograms/mL]	MIC [2, 4] [micrograms/mL]	MIC (P. aeruginosa ATCC 9721; [5]) [micrograms/mL]	also measured
CC(C)C[C@@H]1NC(=O)[C@@H](Cc2ccccc2)NC(=O)[C@H](CCN)NC(=O)[C@@H](NC(=O)[C@H](CCN)NC(=O)[C@@H](NC(=O)CN)C(C)O)CCNC(=O)[C@H](C(C)O)NC(=O)[C@H](CCN)NC(=O)[C@H](CCN)NC1=O (stereo partly shown) [Example 3, 2-Aminoethanoyl Polymyxin B Nonapeptide, Sulphate Salt] (H-G[Thr(3ξ)][Dab][Dab][Dab][dF]L[Dab][Dab][Thr(3ξ)]; lactam 4-C)	>32	16	16	2	4	4	8	2	>32	1	16	0.5	0.25	0.5	0.125	0.125	–
CC(C)C[C@@H]1NC(=O)[C@@H](Cc2ccccc2)NC(=O)[C@H](CCN)NC(=O)[C@@H](NC(=O)[C@H](CCN)NC(=O)[C@@H](NC(=O)CCCCCN)C(C)O)CCNC(=O)[C@H](C(C)O)NC(=O)[C@H](CCN)NC(=O)[C@H](CCN)NC1=O (stereo partly shown) [Example 7, 6-Aminohexanoyl Polymyxin B Nonapeptide, Sulphate Salt] (H-[Ahx][Thr(3ξ)][Dab][Dab][Dab][dF]L[Dab][Dab][Thr(3ξ)]; lactam 4-C)	8	16	0.5	–	8	–	4	2	>32	0.5	0.06	0.25	–	0.5	0.25	–	–
CC(C)C[C@@H]1NC(=O)[C@@H](Cc2ccccc2)NC(=O)[C@H](CCN)NC(=O)[C@@H](NC(=O)[C@H](CCN)NC(=O)[C@@H](NC(=O)CCCCCCCN)C(C)O)CCNC(=O)[C@H](C(C)O)NC(=O)[C@H](CCN)NC(=O)[C@H](CCN)NC1=O (stereo partly shown) [Example 9, 8-Aminooctanoyl Polymyxin B Nonapeptide, Sulphate Salt] (H-[Aoc][Thr(3ξ)][Dab][Dab][Dab][dF]L[Dab][Dab][Thr(3ξ)]; lactam 4-C)	>32	>32	>32	16	2	1	1	2	>32	0.5	0.5	0.5	2	0.5	0.5	0.5	–
CC(C)C[C@@H]1NC(=O)[C@@H](Cc2ccccc2)NC(=O)[C@H](CCN)NC(=O)[C@@H](NC(=O)[C@H](CCN)NC(=O)[C@@H](NC(=O)C2CCCC2N)C(C)O)CCNC(=O)[C@H](C(C)O)NC(=O)[C@H](CCN)NC(=O)[C@H](CCN)NC1=O (stereo partly drawn) [Example 11, (1R,S/2R,S)-2-Aminocyclopentanecarbonyl Polymyxin B Nonapeptide, Sulphate Salt] (X2-[Thr(3ξ)][Dab][Dab][Dab][dF]L[Dab][Dab][Thr(3ξ)]; lactam 3-C)	1	4	0.5	2	0.5	0.125	2	2	2	0.5	0.25	0.25	0.25	0.125	0.125	0.25	–
CC(C)C[C@@H]1NC(=O)[C@@H](Cc2ccccc2)NC(=O)[C@H](CCN)NC(=O)[C@@H](NC(=O)[C@H](CCN)NC(=O)[C@@H](NC(=O)C2CCNC2)C(C)O)CCNC(=O)[C@H](C(C)O)NC(=O)[C@H](CCN)NC(=O)[C@H](CCN)NC1=O (stereo partly drawn) [Example 13, [3-(R,S)-Pyrrolidine-3-carbonyl] Polymyxin B Nonapeptide, Sulphate Salt] (X3-[Thr(3ξ)][Dab][Dab][Dab][dF]L[Dab][Dab][Thr(3ξ)]; lactam 3-C)	4	4	2	0.5	–	0.25	2	0.5	4	0.5	1	0.25	0.5	0.25	2	0.125	–
CC(C)C[C@@H]1NC(=O)[C@@H](Cc2ccccc2)NC(=O)[C@H](CCN)NC(=O)[C@@H](NC(=O)[C@H](CCN)NC(=O)[C@@H](NC(=O)CCCCN)C(C)O)CCNC(=O)[C@H](C(C)O)NC(=O)[C@H](CCN)NC(=O)[C@H](CCN)NC1=O (stereo partly shown) [Example 15, 5-Aminopentanoyl polymyxin B nonapeptide] (H-[Ava][Thr(3ξ)][Dab][Dab][Dab][dF]L[Dab][Dab][Thr(3ξ)]; lactam 4-C)	–	–	–	–	–	–	–	–	–	–	–	–	–	–	–	–	MIC (A. baumannii ATCCBAA-747; [6]): 8 micrograms/mL; MIC (A. baumannii NCTC7844; [6]): 8 micrograms/mL; MIC (A. baumannii NCTC13423; [6]): 4 micrograms/mL; MIC (A. baumannii ATCC19606; [6]): 1 micrograms/mL; MIC (E. coli NCTC9001; [6]): 2 micrograms/mL; MIC (E. coli ATCC700928; [6]): 1 micrograms/mL; MIC (E. coli NCTC12900; [6]): 2 micrograms/mL; MIC (E. coli ATCC25922; [6]): 2 micrograms/mL; MIC (K. pneumoniae NCTC8172; [6]): 4 micrograms/mL; MIC (K. pneumoniae ATCC 4352; K. pneumoniae ATCC4352, Table 4A, different batches of cation-adjusted Muller-Hinton broth): 0.5 micrograms/mL; MIC [1, 6]: 0.5 micrograms/mL; MIC (K. pneumoniae NCTC7427; [6]): 0.25 micrograms/mL; MIC (P. aeruginosa ATCC10145; [6]): 1 micrograms/mL; MIC (P. aeruginosa ATCC27853; [6]): 0.25 micrograms/mL; MIC ([2]; P. aeruginosa AATCCRM 9027, Table 4A, different batches of cation-adjusted Muller-Hinton broth): 0.125 micrograms/mL; MIC (P. aeruginosa ATCC 9721; P. aeruginosa ATCC9721, Table 4A, different batches of cation-adjusted Muller-Hinton broth): 0.125 micrograms/mL
